Results as given in ChEMBL document CHEMBL3885861, “Open TG-GATES”.

Species: Rattus norvegicus
Test: Open TG-GATES - Regimen: Single
Type: toxicity, organism-based, Sprague-Dawley
Set-up: regimen Single, gender Male, age 6 weeks
Details: in vivo, po, route gavage; for TG / TP / gamma-GTP / ALP / ALT / AST / BUN / CRE / Ca / DBIL / IP / K / LDH / Na / PL / RALB / TBIL / TC: tissue Plasma; for Bas / Eos / Fbg / Hb / Ht / Lym / MCHC / Mono / Neu / PT / Plat / RBC / Ret / WBC / MCH: tissue Blood; for KIDNEY_L / KIDNEY_R / KIDNEY_TOTAL: tissue Kidney; for LIVER: tissue Liver
[1] = 0 mg/kg, 24 h, dose level Control

## CCC(C)(C)C(=O)O[C@H]1C[C@@H](C)C=C2C=C[C@H](C)[C@H](CC[C@@H]3C[C@@H](O)CC(=O)O3)[C@H]21 [SIMVASTATIN]
[1]
  TG: 76.6 mg/dL
  TP: 5.5 g/dL
  gamma-GTP: 1.6 IU/L
40 mg/kg, 3 h, dose level Low
  TERMINAL_BW: 203.4 g
  Bas: 0%
  Eos: 0.6%
  Fbg: 213.2 mg/dL
  Hb: 12.4 g/dL
  Ht: 37.8%
  Lym: 81.6%
  MCHC: 32.8%
  Mono: 6%
  Neu: 12%
  PT: 11 s
  Plat: 112.7 x10_4/uL
  RBC: 568 x10_4/ul
  Ret: 10%
  WBC: 120.8 x10_2/uL
  KIDNEY_L: 0.9 g
  KIDNEY_R: 0.9 g
  KIDNEY_TOTAL: 1.9 g
  LIVER: 9.7 g
  ALP: 793.6 IU/L
  ALT: 31.4 IU/L
  AST: 61.6 IU/L
  BUN: 13.6 mg/dL
  CRE: 0.6 mg/dL
  Ca: 10.8 mg/dL
  DBIL: 0.04 mg/dL
  IP: 8.9 mg/dL
  K: 4.4 meq/L
  LDH: 91.8 IU/L
  Na: 137.8 meq/L
  PL: 144.6 mg/dL
  RALB: 3.8 g/dL
  TBIL: 0.3 mg/dL
  TC: 77.4 mg/dL
  TG: 71.2 mg/dL
  TP: 5.6 g/dL
  gamma-GTP: 1.4 IU/L
40 mg/kg, 6 h, dose level Low
  TERMINAL_BW: 196.1 g
  Bas: 0%
  Eos: 1%
  Fbg: 216.2 mg/dL
  Hb: 13.4 g/dL
  Ht: 41.2%
  Lym: 81.6%
  MCH: 21.8 pg
  MCHC: 32.6%
  Mono: 7.4%
  Neu: 10.2%
  Plat: 112.9 x10_4/uL
  RBC: 615.8 x10_4/ul
  Ret: 9.1%
  WBC: 93.2 x10_2/uL
  KIDNEY_L: 0.9 g
  KIDNEY_R: 0.9 g
  KIDNEY_TOTAL: 1.8 g
  LIVER: 8.7 g
  ALP: 826.8 IU/L
  ALT: 32.8 IU/L
  AST: 58.6 IU/L
  CRE: 0.5 mg/dL
  Ca: 10.2 mg/dL
  DBIL: 0.08 mg/dL
  IP: 9.6 mg/dL
  K: 4.4 meq/L
  LDH: 98.4 IU/L
  Na: 137.6 meq/L
  PL: 132.4 mg/dL
  RALB: 3.6 g/dL
  TBIL: 0.4 mg/dL
  TC: 75.8 mg/dL
  TG: 50.8 mg/dL
  TP: 5.6 g/dL
  gamma-GTP: 1.2 IU/L
40 mg/kg, 9 h, dose level Low
  TERMINAL_BW: 200.4 g
  Bas: 0%
  Eos: 0.8%
  Fbg: 214.8 mg/dL
  Hb: 13.2 g/dL
  Ht: 40.1%
  Lym: 78.6%
  MCH: 22 pg
  MCHC: 32.9%
  Mono: 7.8%
  Neu: 12.8%
  PT: 11.7 s
  Plat: 110 x10_4/uL
  RBC: 601.2 x10_4/ul
  Ret: 9.1%
  WBC: 101.8 x10_2/uL
  KIDNEY_L: 0.9 g
  KIDNEY_R: 0.9 g
  KIDNEY_TOTAL: 1.8 g
  LIVER: 8.2 g
  ALP: 749.6 IU/L
  ALT: 32.8 IU/L
  AST: 58.4 IU/L
  BUN: 12.6 mg/dL
  CRE: 0.7 mg/dL
  DBIL: 0.016 mg/dL
  K: 4.6 meq/L
  LDH: 91 IU/L
  Na: 138 meq/L
  PL: 118.4 mg/dL
  RALB: 3.7 g/dL
  TBIL: 0.4 mg/dL
  TC: 64.8 mg/dL
  TG: 42 mg/dL
  TP: 5.4 g/dL
  gamma-GTP: 2 IU/L
40 mg/kg, 24 h, dose level Low
  TERMINAL_BW: 216.2 g
  Bas: 0%
  Eos: 1%
  Fbg: 221.2 mg/dL
  Hb: 12.5 g/dL
  Ht: 38.2%
  Lym: 78.6%
  MCHC: 32.8%
  Mono: 9.8%
  Neu: 11%
  Plat: 119.9 x10_4/uL
  RBC: 588.4 x10_4/ul
  WBC: 118.8 x10_2/uL
  KIDNEY_L: 1 g
  KIDNEY_R: 1 g
  KIDNEY_TOTAL: 2 g
  LIVER: 10.8 g
  ALP: 866.2 IU/L
  ALT: 41.6 IU/L
  AST: 63.6 IU/L
  BUN: 18.6 mg/dL
  CRE: 0.5 mg/dL
  Ca: 10.8 mg/dL
  DBIL: 0.022 mg/dL
  IP: 8.4 mg/dL
  K: 4.6 meq/L
  LDH: 108.4 IU/L
  Na: 140.2 meq/L
  PL: 144.6 mg/dL
  RALB: 3.7 g/dL
  TBIL: 0.3 mg/dL
